Test results from publication PMC11643690, “Chelating Properties of N6O-Donors Toward Cu(II) Ions: Speciation in Aqueous Environments and Catalytic Activity of the Dinuclear Complexes” (Molecules, 2024).

What was measured:
[1] = Potentiometric titration of the free ligand (protonation constants); format: physicochemical
Method: As far as the ligand behavior in aqueous solutions is concerned, the speciation curves were obtained from the titration of an L-CH3 solution (0.1 mM in DMSO 5% (v/v)/H2O (HCl/KCl); initial pH = 2.7) by stepwise addition of NaOH 0.1 M. The distribution curves and the acid association constants were then calculated (Figure 1 and Table 1).
At low pH, L-CH3 has seven protic groups that can be deprotonated upon pH increase: besides the phenolic OH, two tertiary amines and four pyridines. From the titration, six logKa could be successfully obtained. The highest one, logKa = 9.75, is related to the phenolic group. The next constants are ascribed to the nitrogens of the tertiary amines and of the Pyr groups, although they are difficult to unambiguously correlate with a specific functional group. […] The potentiometric titration was carried out till pH 9.5 to avoid the precipitation of the ligand in the basic environment.
Potentiometric measurements were carried out using the Metrohm pH-meter system (Herisau, Switzerland) with a Metrohm semi-micro combination electrode at 25 °C, calibrated in a hydrogen ion concentration using HCl. The ligands were dissolved in DMSO (5% v/v/H2O (HCl/KCl)) in order to obtain a concentration of 1 mM. The titrant (KOH 0.1M) was added with a micrometric syringe at 298 K in the pH range of 2.5–11.5 in an argon atmosphere. The stability constants and stoichiometry of the complexes were calculated using the titration curves and the SUPERQUAD and HYPERQUAD [47, 48].

[2] = UV–Vis titration of HL-CH3 with Mn(ClO4)2, binding constant; settings: Mn(II); 0.1 mM ligand, 5% v/v MeOH/BBS 50 mM, pH 7.4
Method: (§1) To evaluate the selectivity of these ligands towards copper, the same titrations were performed with different metal salts: Fe(ClO4)2, Mn(ClO4)2, and Zn(ClO4)2, monitoring the methyl-substituted ligand (Figures S39–S41). These metal ions were chosen because they are also divalent and common in biological matrixes.
(§2) For the determination of the binding constant between metals and ligands, a solution of the latter was titrated with 0.2 eq of metal for each addition. The titrating solutions were 10 mM and 100 μM for Cu(ClO4)2 versus 0.1 mM and 1 μM for the ligands in 5% v/v MeOH/BBS (50 mM, pH 7.4), respectively. […] The absorbance variation was monitored from 200 nm to 800 nm at 25 °C. […]
(§3) UV-vis spectra of ligands and complexes were recorded in a quartz cuvette, with 1 cm of optical path. […]
(§4) The titrating solutions were 10 mM and 100 μM for Cu(ClO4)2 versus 0.1 mM and 1 μM for the ligands in 5% v/v MeOH/BBS (50 mM, pH 7.4), respectively. […] The absorbance variation was monitored from 200 nm to 800 nm with a Varian Cary 50 instrument, thermostated at 25 °C.
(§5) The binding constants were then determined by nonlinear regression analysis of the plot “ΔAbs/b vs Cu(II) concentration” (Equation 7 ), according to K. Connors, The Measurement of Molecular Complex Stability, Madison, Wisconsin, Wiley, 1987[5]. […]
(§6) ΔA: absorbance at a certain wavelength. […]

[3] = UV–Vis titration of HL-CH3 with Fe(ClO4)2, binding constant; settings: Fe(II); 0.1 mM ligand, 5% v/v MeOH/BBS 50 mM, pH 7.4
Method: as §1, §2, §3, §4, §5, §6

[4] = overall protonation constant, DMSO 5% (v/v)/H2O (HCl/KCl), 25 °C

logβi, L^− + 2H^+ ⇌ [H2L]^+ [1, 4]: 16.57 ± 0.01 | logβi, L^− + 3H^+ ⇌ [H3L]^2+ [1, 4]: 21.56 ± 0.01 | logβi, L^− + 4H^+ ⇌ [H4L]^3+ [1, 4]: 25.27 ± 0.01 | logβi, L^− + 5H^+ ⇌ [H5L]^4+ [1, 4]: 27.83 ± 0.02 | logβi, L^− + 6H^+ ⇌ [H6L]^5+ [1, 4]: 29.60 ± 0.11 | logβi, L^− + H^+ ⇌ HL [1, 4]: 9.75 ± 0.01 | logKa, HL + H^+ ⇌ [H2L]^+ ([1]; stepwise constant): 6.82 | logKa, [H2L]^+ + H^+ ⇌ [H3L]^2+ ([1]; stepwise constant): 4.99 | logKa, [H3L]^2+ + H^+ ⇌ [H4L]^3+ ([1]; stepwise constant): 3.71 | logKa, [H4L]^3+ + H^+ ⇌ [H5L]^4+ ([1]; stepwise constant): 2.56 | logKa, [H5L]^4+ + H^+ ⇌ [H6L]^5+ ([1]; stepwise constant): 1.77 | logKa, L + H^+ ⇌ HL ([1]; stepwise constant, phenolic group): 9.75 | Kbind [2]: 6.12 × 10^7 M^−2 | log(Kbind) [2]: 7.78 | Kbind [3]: 1.09 × 10^8 M^−2 | log(Kbind) [3]: 8.03
Compound: Cc1cc(CN(Cc2ccccn2)Cc2ccccn2)c(O)c(CN(Cc2ccccn2)Cc2ccccn2)c1 [HL-CH3, 2,6-bis[(bis(2-pyridylmethyl)amino)methyl]-4-methylphenol]
